The text below walks through data of patent US8551960B2, “Uses of D-mannopyranose derivatives activating angiogenesis” (Centre National de la Recherche Scientifique, priority 2008, dated 2013).

The assay concerns chick embryo chorioallantoic membrane (CAM). The assay is described as follows: chick embryo chorioallantoic membrane (CAM) angiogenesis study. To be noted: nitrocellulose filter disk soaked with 20 μl of 6 mg/ml in PBS placed on CAM on 7th day; observed on 12th day; estimated visually; FIG. 1. In kind it is in vivo, chick (Leghorn white breed). On the procedure: This study was conducted on chick embryos according to the method described by Ribatti D. et al., Nat. Protoc., 2006, 1(1), 85-91 with some minor modifications.
This study was conducted on chick embryo chorioallantoic membrane (CAM). The CAM is an extraembryonic membrane formed on the 4th day of incubation by fusion of the chorion and allantois. It enables gas exchanges to take place between the chick embryo and the extraembryonic environment until birth. This CAM is composed of a very thick capillary network which forms a continuous surface in direct contact with the shell. Rapid capillary proliferation of this membrane continues until the 11th day; the mitotic index then decreases rapidly and the vascular system reaches its final arrangement on the 18th day, just before birth (hatching on the 21st day).
Fertilized chicken eggs of the Leghorn white breed were placed in an incubator at the start of embryogenesis, where they were kept under constant humidity at a temperature of 38° C. On the second day of incubation, a window was made in the shell after removing 2 to 3 ml of albumin in order to detach the CAM from the shell. The window was then sealed with adhesive tape and the egg was put back in the incubator to continue its development until the day of the experiment. On the 7th day, pieces of inert synthetic polymers (nitrocellulose filter disks 0.4 cm in diameter) were soaked with 20 μl of each of the solutions of the test compounds (6 mg/ml in PBS) and were then positioned on the CAM. The effect of the test substances on angiogenesis was then observed on the 12th day and the quantitative evaluation of the pro- or antiangiogenic response was estimated visually.

As to `COC1O[C@H](CC(=O)O)[C@@H](O)[C@H](O)[C@@H]1O` (stereo partly drawn) [DM4, (methyl 6,7-dideoxy-D-manno-heptopyranoside)uronic acid], the “effect on vascularization of the chick embryos (pro- or antiangiogenic response)” value (“effect on vascularization” for short) is listed as “inhibitory effect on vascularization”.

As to `CO[C@H]1O[C@H](CN=[N+]=[N-])[C@@H](O)[C@H](O)[C@@H]1O` [Compound I-2, Methyl 6-Azido-6-Deoxy-α-D-Mannopyranoside], the “effect on vascularization” value is “activating effect on vascularization”.

Consider `CO[C@H]1O[C@H](CCN)[C@@H](O)[C@H](O)[C@@H]1O` [Compound I-1, Methyl 7-amino-6,7-dideoxy-α-D-manno-heptopyranoside], for which the “effect on vascularization” value is reported as “activating effect on vascularization”.

In the case of `COC1O[C@H](CCP(=O)(O)O)[C@@H](O)[C@H](O)[C@@H]1O` (stereo partly drawn) [Compound I-4, methyl 7-phosphonato-6,7-dideoxy-D-manno-heptopyranoside], the “effect on vascularization” value is given as “activating effect on vascularization”.

Consider “methyl 6,7-dideoxy-7-sulfonato-D-manno-heptopyranoside [DM2]”, for which the “effect on vascularization” value is given as “inhibitory effect on vascularization”.

With `COC1O[C@H](COP(=O)([O-])[O-])[C@@H](O)[C@H](O)[C@@H]1O.[Na+].[Na+]` (stereo partly drawn) [DM1, methyl(disodium)-6-phosphate-D-manno-pyranoside], the “effect on vascularization” value is reported as “inhibitory effect on vascularization”.

For `COC1O[C@H](CC(C(=O)O)C(=O)O)[C@@H](O)[C@H](O)[C@@H]1O` (stereo partly drawn) [DM3, methyl 6-deoxy-6-malonate-D-mannopyranoside], the “effect on vascularization” value is “inhibitory effect on vascularization”.
